Assay results from PubChem BioAssay AID248 (DTP/NCI, 2004).
Toxic doses and inconclusive results are not listed.

Test system: L1210 leukemia ip in BDF1 mice, survival T/C
Assay: NCI In Vivo Anticancer Drug Screen. Data for tumor model L1210 Leukemia (intraperitoneal) in B6D2F1 (BDF1) mice
Settings: endpoint: mean survival time, higher = longer survival
Summary of the method: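 In this screen, tumor-bearing mice given compound are compared to those given vehicle, and their survival values are reported as a treated-to-control quotient.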

[1] = dose: 100.0 mg/kg/injection, schedule: Q01DX009 (ip), vehicle: Klucel (hydroxypropylcellulose) (HPC)
[2] = dose: 200.0 mg/kg/injection, schedule: Q01DX009 (ip), vehicle: Klucel (hydroxypropylcellulose) (HPC)
[3] = dose: 400.0 mg/kg/injection, schedule: Q01DX009 (ip), vehicle: Klucel (hydroxypropylcellulose) (HPC)
[4] = dose: 100.0 mg/kg/injection, schedule: Q04DX003 (ip), vehicle: Klucel (hydroxypropylcellulose) (HPC)
[5] = dose: 200.0 mg/kg/injection, schedule: Q04DX003 (ip), vehicle: Klucel (hydroxypropylcellulose) (HPC)
[6] = dose: 400.0 mg/kg/injection, schedule: Q04DX003 (ip), vehicle: Klucel (hydroxypropylcellulose) (HPC)

**Q.** With `Cn1c(=O)c2c(ncn2C)n(C)c1=O` as the compound, how does the T/C (dose: 25.0 mg/kg/injection, schedule: Q01DX Z (ip), vehicle: saline) read?
**A.** Its T/C is 92 % of control.

**Q.** And the T/C (dose: 50.0 mg/kg/injection, schedule: Q01DX Z (ip), vehicle: saline)?
**A.** Its T/C is 90 % of control.

**Q.** And the T/C (dose: 100.0 mg/kg/injection, schedule: Q01DX009 (ip), vehicle: saline with Tween-80)?
**A.** Its T/C is 93 % of control.

**Q.** And the T/C (dose: 100.0 mg/kg/injection, schedule: Q01DX Z (ip), vehicle: saline)?
**A.** Its T/C is 92 % of control.

**Q.** What about the T/C (dose: 115.0 mg/kg/injection, schedule: Q01DX001 (ip), vehicle: saline) of the same compound?
**A.** The T/C was 97 % of control.

**Q.** What about the T/C (dose: 175.0 mg/kg/injection, schedule: Q01DX001 (ip), vehicle: saline) of the same compound?
**A.** The T/C was 111 % of control.

**Q.** What about the T/C (dose: 200.0 mg/kg/injection, schedule: Q01DX009 (ip), vehicle: saline with Tween-80) of the same compound?
**A.** The T/C was 95 % of control.

**Q.** And the T/C (dose: 200.0 mg/kg/injection, schedule: Q01DX Z (ip), vehicle: saline)?
**A.** Its T/C is 90 % of control.

**Q.** What about the T/C (dose: 265.0 mg/kg/injection, schedule: Q01DX001 (ip), vehicle: saline) of the same compound?
**A.** The T/C was 103 % of control.

**Q.** Which results are given for `O=NN(CCCl)C(=O)NC(CCC(=O)O)C(=O)O` (stereo unspecified)?
**A.** T/C (dose: 13.0 mg/kg/injection, schedule: Q01DX001 (ip), vehicle: saline with Tween-80): 123 % of control; T/C (dose: 67.0 mg/kg/injection, schedule: Q01DX001 (ip), vehicle: saline with Tween-80): 200 % of control; T/C (dose: 100.0 mg/kg/injection, schedule: Q01DX001 (ip), vehicle: saline with Tween-80): 261 % of control; T/C (dose: 150.0 mg/kg/injection, schedule: Q01DX001 (ip), vehicle: saline with Tween-80): 331 % of control; T/C (dose: 224.0 mg/kg/injection, schedule: Q01DX001 (ip), vehicle: saline with Tween-80): 331 % of control; T/C (dose: 335.0 mg/kg/injection, schedule: Q01DX001 (ip), vehicle: saline with Tween-80): 192 % of control

**Q.** How did the T/C (dose: 100.0 mg/kg/injection, schedule: Q01DX001 (ip), vehicle: other) turn out when `C(=Nc1ccc2c3c(cccc13)-c1ccccc1-2)c1ccc2c(c1)OCO2` was run?
**A.** Its T/C is 101 % of control.

**Q.** What about the T/C (dose: 200.0 mg/kg/injection, schedule: Q01DX001 (ip), vehicle: other) of the same compound?
**A.** The T/C was 97 % of control.

**Q.** What about the T/C (dose: 400.0 mg/kg/injection, schedule: Q01DX001 (ip), vehicle: other) of the same compound?
**A.** Its T/C is 94 % of control.

**Q.** How did the T/C (dose: 100.0 mg/kg/injection, schedule: Q04DX002 (ip), vehicle: other) turn out when `C=Cc1c2ccccc2cc2c1ccc1ccccc12` was run?
**A.** Its T/C is 102 % of control.

**Q.** And the T/C (dose: 200.0 mg/kg/injection, schedule: Q04DX002 (ip), vehicle: other)?
**A.** The T/C was 106 % of control.

**Q.** And the T/C (dose: 400.0 mg/kg/injection, schedule: Q04DX002 (ip), vehicle: other)?
**A.** Its T/C is 109 % of control.

**Q.** `COc1ccc(NC(=O)Oc2ccc(F)cc2Cl)c(OC)c1` was tested. Which T/C [1] did it give?
**A.** Its T/C is 97 % of control.

**Q.** And the T/C [2]?
**A.** The T/C was 95 % of control.

**Q.** What about the T/C [3] of the same compound?
**A.** The T/C was 101 % of control.

**Q.** Which results are given for `COC1OC(COS(C)(=O)=O)C(O)C(O)C1OS(C)(=O)=O` (stereo unspecified)?
**A.** T/C [1]: 109 % of control; T/C [4]: 106 % of control; T/C [2]: 95 % of control; T/C [5]: 102 % of control; T/C [3]: 111 % of control; T/C [6]: 102 % of control

**Q.** What does the source list for `CCCCCCC[CH2][Sn]([Cl])([Cl])[CH2]CCCCCCC`?
**A.** T/C (dose: 50.0 mg/kg/injection, schedule: Q01DX001 (ip), vehicle: carboxymethylcellulose (CMC)): 96 % of control; T/C (dose: 100.0 mg/kg/injection, schedule: Q01DX001 (ip), vehicle: carboxymethylcellulose (CMC)): 96 % of control; T/C (dose: 200.0 mg/kg/injection, schedule: Q01DX001 (ip), vehicle: carboxymethylcellulose (CMC)): 96 % of control; T/C (dose: 400.0 mg/kg/injection, schedule: Q01DX001 (ip), vehicle: carboxymethylcellulose (CMC)): 96 % of control

**Q.** How did the T/C (dose: 100.0 mg/kg/injection, schedule: Q04DX002 (ip), vehicle: saline with Tween-80) turn out when `O=C(NC(=S)c1cccc2ccccc12)Nc1ccc(Cl)cc1` was run?
**A.** The T/C was 97 % of control.

**Q.** What about the T/C (dose: 200.0 mg/kg/injection, schedule: Q04DX002 (ip), vehicle: saline with Tween-80) of the same compound?
**A.** Its T/C is 89 % of control.

**Q.** And the T/C (dose: 400.0 mg/kg/injection, schedule: Q04DX002 (ip), vehicle: saline with Tween-80)?
**A.** The T/C was 89 % of control.

**Q.** How did the T/C [1] turn out when `COc1ccc(Cl)cc1NC(=O)NC(Cc1ccccc1)c1ccccc1` (stereo unspecified) was run?
**A.** The T/C was 102 % of control.

**Q.** What about the T/C [4] of the same compound?
**A.** The T/C was 101 % of control.

**Q.** And the T/C [2]?
**A.** Its T/C is 100 % of control.

**Q.** What about the T/C [5] of the same compound?
**A.** Its T/C is 103 % of control.

**Q.** What about the T/C [3] of the same compound?
**A.** Its T/C is 105 % of control.

**Q.** And the T/C [6]?
**A.** Its T/C is 103 % of control.

**Q.** How did the T/C (dose: 5.0 mg/kg/injection, schedule: Q01DX Z (ip), vehicle: carboxymethylcellulose (CMC)) turn out when `N=C(N)/C=C\C(=O)O` was run?
**A.** The T/C was 93 % of control.

**Q.** What about the T/C (dose: 10.0 mg/kg/injection, schedule: Q01DX Z (ip), vehicle: carboxymethylcellulose (CMC)) of the same compound?
**A.** The T/C was 103 % of control.

**Q.** What about the T/C (dose: 20.0 mg/kg/injection, schedule: Q01DX Z (ip), vehicle: carboxymethylcellulose (CMC)) of the same compound?
**A.** Its T/C is 101 % of control.
